Measurements as given in ChEMBL document CHEMBL5725298 (2017).

Assay: Anti-HIV Cytoprotection Assay: The in vitro antiviral activity profile for CMX157 was evaluated for cell-type effects and HIV strain effects.

Structure (SMILES)	EC50 [µM]
C[C@H](Cn1cnc2c(N)ncnc21)OCP(=O)(O)OCCCOCC(=O)O	> 10
C[C@H](Cn1cnc2c(N)ncnc21)OCP(=O)(O)OCCCOCCCC(=O)O	> 10
C[C@H](Cn1cnc2c(N)ncnc21)OCP(=O)(O)OCCCO	> 10
CCCCCCCCCCCCCCCCOCCCOP(=O)(O)CO[C@H](C)Cn1cnc2c(N)ncnc21 [TENOFOVIR EXALIDEX]	< 0.03
